Molecular target: T1, Smc1/Smc3 heterodimer with Scc1-C (cohesin) (Saccharomyces cerevisiae, UniProt P32908+P47037, P32908:D1164E, form not given)
T1 construct: N-terminal tags; Sf9 insect cells; fluorescently labelled for MST; with Sister chromatid cohesion protein 1
T1 sequence (P32908 1-1225 D1164E): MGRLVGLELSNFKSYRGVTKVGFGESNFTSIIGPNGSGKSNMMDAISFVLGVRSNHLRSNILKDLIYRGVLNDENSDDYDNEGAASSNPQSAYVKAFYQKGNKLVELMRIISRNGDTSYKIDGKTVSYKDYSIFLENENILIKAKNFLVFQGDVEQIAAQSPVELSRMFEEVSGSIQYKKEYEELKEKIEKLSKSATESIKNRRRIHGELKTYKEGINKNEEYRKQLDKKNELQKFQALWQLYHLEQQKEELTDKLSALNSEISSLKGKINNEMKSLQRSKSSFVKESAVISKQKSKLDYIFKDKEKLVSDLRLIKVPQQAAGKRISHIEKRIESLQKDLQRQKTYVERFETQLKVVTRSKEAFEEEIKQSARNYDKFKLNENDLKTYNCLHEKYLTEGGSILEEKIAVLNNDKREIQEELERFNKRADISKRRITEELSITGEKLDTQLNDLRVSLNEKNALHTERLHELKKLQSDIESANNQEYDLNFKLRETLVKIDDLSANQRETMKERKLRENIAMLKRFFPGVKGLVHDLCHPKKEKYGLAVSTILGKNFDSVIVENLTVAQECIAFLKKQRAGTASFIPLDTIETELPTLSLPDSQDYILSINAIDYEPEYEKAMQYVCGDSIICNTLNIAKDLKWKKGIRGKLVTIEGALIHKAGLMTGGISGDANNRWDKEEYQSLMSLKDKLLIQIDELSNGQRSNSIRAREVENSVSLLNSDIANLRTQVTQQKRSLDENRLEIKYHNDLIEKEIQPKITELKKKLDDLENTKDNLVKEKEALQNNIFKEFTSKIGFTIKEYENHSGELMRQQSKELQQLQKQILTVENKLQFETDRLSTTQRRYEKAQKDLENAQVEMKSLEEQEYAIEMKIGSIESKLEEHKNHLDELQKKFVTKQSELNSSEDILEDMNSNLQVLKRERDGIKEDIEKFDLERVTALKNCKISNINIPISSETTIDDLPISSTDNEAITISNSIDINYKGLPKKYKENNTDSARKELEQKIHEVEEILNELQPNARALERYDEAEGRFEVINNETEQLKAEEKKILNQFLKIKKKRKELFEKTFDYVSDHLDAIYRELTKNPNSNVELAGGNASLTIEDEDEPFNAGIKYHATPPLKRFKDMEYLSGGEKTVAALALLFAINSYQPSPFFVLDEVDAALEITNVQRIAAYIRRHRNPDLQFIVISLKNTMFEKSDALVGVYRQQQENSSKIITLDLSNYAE
T1 sequence (P47037 1-1230): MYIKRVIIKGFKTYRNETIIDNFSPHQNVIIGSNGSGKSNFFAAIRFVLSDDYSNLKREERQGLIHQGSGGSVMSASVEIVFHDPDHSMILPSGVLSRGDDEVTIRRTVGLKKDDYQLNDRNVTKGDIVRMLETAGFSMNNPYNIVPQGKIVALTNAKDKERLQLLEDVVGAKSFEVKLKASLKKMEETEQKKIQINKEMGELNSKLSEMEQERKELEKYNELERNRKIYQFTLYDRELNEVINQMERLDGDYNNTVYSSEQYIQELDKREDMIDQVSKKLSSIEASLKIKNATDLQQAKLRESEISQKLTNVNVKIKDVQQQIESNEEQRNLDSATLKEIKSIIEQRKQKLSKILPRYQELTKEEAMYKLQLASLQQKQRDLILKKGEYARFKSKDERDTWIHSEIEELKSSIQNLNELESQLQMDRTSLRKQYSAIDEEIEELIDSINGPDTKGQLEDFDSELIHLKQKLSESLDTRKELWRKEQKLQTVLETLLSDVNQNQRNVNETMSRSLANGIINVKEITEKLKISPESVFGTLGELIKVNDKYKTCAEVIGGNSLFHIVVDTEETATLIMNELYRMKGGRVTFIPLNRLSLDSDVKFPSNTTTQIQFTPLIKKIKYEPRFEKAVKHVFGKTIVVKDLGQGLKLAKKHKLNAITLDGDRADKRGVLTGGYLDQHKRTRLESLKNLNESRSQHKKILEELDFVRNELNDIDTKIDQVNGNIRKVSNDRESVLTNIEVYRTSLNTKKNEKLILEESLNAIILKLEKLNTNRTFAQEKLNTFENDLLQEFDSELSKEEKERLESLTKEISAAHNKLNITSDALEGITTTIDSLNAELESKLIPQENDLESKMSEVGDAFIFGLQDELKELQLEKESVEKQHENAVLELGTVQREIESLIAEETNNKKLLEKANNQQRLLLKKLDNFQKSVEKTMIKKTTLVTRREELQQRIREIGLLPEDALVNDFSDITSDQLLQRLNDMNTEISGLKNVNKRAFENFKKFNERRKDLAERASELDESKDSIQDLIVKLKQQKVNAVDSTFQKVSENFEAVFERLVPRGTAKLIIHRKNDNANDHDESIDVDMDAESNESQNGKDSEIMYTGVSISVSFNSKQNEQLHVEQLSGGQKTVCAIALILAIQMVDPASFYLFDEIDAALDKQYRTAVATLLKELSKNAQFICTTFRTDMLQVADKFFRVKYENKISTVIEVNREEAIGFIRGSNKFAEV
T1 sequence (Q12158 1-566 partner): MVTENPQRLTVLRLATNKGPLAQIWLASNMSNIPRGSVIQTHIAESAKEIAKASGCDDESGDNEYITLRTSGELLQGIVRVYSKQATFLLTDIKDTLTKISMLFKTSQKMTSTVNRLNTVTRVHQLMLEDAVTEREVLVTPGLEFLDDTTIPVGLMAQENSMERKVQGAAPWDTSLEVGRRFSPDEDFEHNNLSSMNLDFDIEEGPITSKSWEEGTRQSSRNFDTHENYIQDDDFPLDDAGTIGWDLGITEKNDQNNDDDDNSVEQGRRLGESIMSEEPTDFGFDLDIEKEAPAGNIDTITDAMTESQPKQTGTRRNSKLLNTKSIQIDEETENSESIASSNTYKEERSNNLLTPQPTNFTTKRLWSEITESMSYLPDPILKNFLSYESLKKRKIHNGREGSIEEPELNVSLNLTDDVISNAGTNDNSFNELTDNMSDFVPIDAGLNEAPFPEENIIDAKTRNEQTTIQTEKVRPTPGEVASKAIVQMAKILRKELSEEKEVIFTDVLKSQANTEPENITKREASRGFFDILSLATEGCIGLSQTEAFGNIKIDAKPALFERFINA
Assay: microscale thermophoresis
Format: binding
Settings: fluorescently labelled protein; Smc1 co-purified with Scc1-C, plus Smc3; read-out: affinity
From the text: microscale thermophoresis on Smc1/Smc3 heterodimer with Scc1-C (cohesin) | Smc1 L1129V, D1164E and E1158Q mutants all had wild-type-like affinity to both ATP and ADP | wild-type and mutant cohesin complexes appear to have similar affinities to ADP

Kd [µM]	SMILES
> 1000	Nc1ncnc2c1ncn2[C@@H]1O[C@H](COP(=O)(O)OP(=O)(O)O)[C@@H](O)[C@H]1O [ADP]
542 ± 188	Nc1ncnc2c1ncn2[C@@H]1O[C@H](COP(=O)(O)OP(=O)(O)OP(=O)(O)O)[C@@H](O)[C@H]1O [ATP]

Source: article PMC4769319, “Cohesin Releases DNA through Asymmetric ATPase-Driven Ring Opening” (Molecular Cell, 2016)
